Measured values as given in patent publication US12441730B2, “PRMT5 inhibitors” (Merck Sharp & Dohme LLC, priority 2019, dated 2025).
Read-outs that look alike come from different tables or passages of the source.

What was measured:
[1] = tested on: symmetric dimethylation of arginine (SDMA) of PRMT5 substrates in MCF-7 cells; assay: PRMT5 Cell Target Engagement (TE) Assay; assay type: cell-based; conditions: 3 days treatment, SDMA high content imaging
Text: PRMT5 Cell Target Engagement (TE) Assay
The PRMT5 TE assay is a biomarker assay for identifying compounds that inhibit symmetric dimethylation of arginine (SDMA) of PRMT5 substrates. The following substrates have been reported for PRMT5: histone H2A and H4 R3, Histone H3 R2, Histone H3 R8, spliceosome Sm proteins, ribosomal protein RPS10, p53, FEN1, nucleoplasmin, nucleolin, EGFR and EBNA. The assay focuses on detecting symmetrically dimethylated nuclear proteins using high content imaging technology. Detection of the expression of symmetrically dimethylated nuclear proteins is through a mixture of primary rabbit monoclonal antibodies to SDMA (CST 13222), which in turn recognized by an Alexafluor 488 dye-conjugated anti-rabbit IgG secondary antibody. The IN Cell Analyzer 2200 or Opera-Phenix measures nuclear Alexafluor 488 fluorescent dye intensity that is directly related to the level of expression of symmetrically dimethylated nuclear proteins at the single cell level. Nuclear AF488 dye intensities are compared to the mean value for DMSO treated cells (MIN) to report percent of inhibition for each compound-treated well.
In this assay, the cell potency (EC50) of each compound was determined from a ten point (1:3 serial dilution; top compound concentration of 10000 nM) titration curve using the following outlined procedure. Each well of a BD falcon collagen coated black/clear bottom 384-well plate was seeded with 4000 MCF-7 cells in 30 μl media and allowed to attach for 5 h. Media is ATCC-formulated Eagle's Minimum Essential Medium, Catalog No. 30-2003. To make the complete growth medium, the following components were added to the base medium: 0.01 mg/mL human recombinant insulin; fetal bovine serum to a final concentration of 10%. Additional 30 μl of media containing 2× compounds were added to each well. Cells were treated for 3 days in 37° C. CO2 incubator. On day 3, cells were fixed with Cytofix, permeabilized with 0.4% Triton-X-100/Cytofix, and washed with D-PBS without Ca/Mg. Cells were blocked with Licor Odessey blocking reagent for 1 h at room temperature, followed by incubation with anti-SDMA (1:1000) antibody at 4° C. overnight. 1° antibody was removed, followed by three washings with DPBS without Ca/Mg and 0.05% Tween20. Hoechst (5 μg/mL), Cell Mask deep stain (1:2000) and Alexa488-conjugated goat anti-rabbit IgG (2 μg/mL) was added for 1 h at room temperature. A final washing step (three washes) was performed before sealing plate for imaging on In Cell Analyzer 2200 or Opera-Phenix. Images from analyzer were uploaded to Columbus (at WP or BOS) for image analysis. IC50 values were determined by 4 parameters robust fit of percent fluorescence units vs. (Log10) compound concentrations.

[2] = target: T1, Full-length (FL)-PRMT5-MEP50 enzyme complex (Homo sapiens, UniProt O14744); assay: PRMT5-MEP50 Enzyme Methylation Assay (Version A); assay type: biochemical
T1 construct: Full-length (FL)-PRMT5-MEP50 enzyme complex (recombinant proteins from baculovirus-transfected Sf21 cells: FL-PRMT5; MW=73837 kDa and FL-MEP50; MW=38614); made in house; host or cells: baculovirus-transfected Sf21 cells
T1 sequence (O14744 whole entry): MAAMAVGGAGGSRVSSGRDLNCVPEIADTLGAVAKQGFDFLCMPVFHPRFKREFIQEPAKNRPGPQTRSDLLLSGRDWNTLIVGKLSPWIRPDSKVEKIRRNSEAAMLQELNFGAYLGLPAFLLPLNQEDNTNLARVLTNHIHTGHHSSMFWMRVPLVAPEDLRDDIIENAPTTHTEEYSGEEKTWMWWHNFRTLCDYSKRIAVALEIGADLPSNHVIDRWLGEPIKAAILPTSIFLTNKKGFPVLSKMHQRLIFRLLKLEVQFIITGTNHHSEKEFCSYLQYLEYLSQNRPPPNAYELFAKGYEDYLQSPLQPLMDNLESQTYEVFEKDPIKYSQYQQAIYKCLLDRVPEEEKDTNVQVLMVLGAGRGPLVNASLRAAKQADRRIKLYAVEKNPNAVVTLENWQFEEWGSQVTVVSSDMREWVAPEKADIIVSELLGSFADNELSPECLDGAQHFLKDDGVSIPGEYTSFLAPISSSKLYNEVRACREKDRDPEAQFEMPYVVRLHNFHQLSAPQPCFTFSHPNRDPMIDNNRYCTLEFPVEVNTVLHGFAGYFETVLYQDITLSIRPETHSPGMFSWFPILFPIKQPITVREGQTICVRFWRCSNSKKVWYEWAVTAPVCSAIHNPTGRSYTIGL
T1 sequence (Q9BQA1 whole entry partner): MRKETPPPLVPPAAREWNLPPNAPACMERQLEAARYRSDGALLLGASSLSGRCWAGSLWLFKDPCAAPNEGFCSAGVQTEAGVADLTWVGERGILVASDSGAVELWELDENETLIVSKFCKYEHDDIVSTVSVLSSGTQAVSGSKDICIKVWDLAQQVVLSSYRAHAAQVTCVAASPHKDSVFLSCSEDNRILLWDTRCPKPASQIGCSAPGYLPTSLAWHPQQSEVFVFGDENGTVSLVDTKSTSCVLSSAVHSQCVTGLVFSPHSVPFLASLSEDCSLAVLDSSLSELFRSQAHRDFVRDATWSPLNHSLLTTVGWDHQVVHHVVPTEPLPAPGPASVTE
Description: PRMT5-MEP50 Enzyme Methylation Assay (Version A)
PRMT5-MEP50 biochemical assay is a direct measurement of the methylation activity of the enzyme complex on a short peptide substrate derived from the N-terminus of H4 histone. Methylation experiment was performed with recombinant PRMT5-MEP50 protein complex. The assessment of inhibitory effect of small molecules was measured by the effectiveness of the compounds to inhibit this reaction (EC50).
In this assay, the potency (EC50) of each compound was determined from a twenty-point (1:2 serial dilution; top compound concentration of 100000 nM) titration curve using the following outlined procedure. To each well of a white ProxiPlus 384 well-plate, 100 nL of compound (1% DMSO in final assay volume of 10 μL) was dispensed, followed by the addition of 8 μL of 1× assay buffer (50 mM Bicine pH 8.0, 1 mM DTT, 0.004% Tween20, 0.01% BSA) containing 1.25 nM of Full-length (FL)-PRMT5-MEP50 enzyme complex (recombinant proteins from baculovirus-transfected Sf21 cells: FL-PRMT5; MW=[…] and FL-MEP50; MW=38614) and 1 μL of 150 μM S-(5′-Adenosyl)-L-Methionine Chloride (SAM). A plate were sealed and placed in a 37° C. humidified chamber for a 60 minutes pre-incubation with compound. Subsequently, each reaction was initiated by the addition of 1 μL 1× assay buffer containing 750 nM biotinylated H4R3(Me1) peptide. The final reaction in each well of 10 μL consists of 1.0 nM PRMT5-MEP50, 75 nM biotinylated-peptide, and 15 μM SAM. Methylation reactions were allowed to proceed for 150 minutes in a sealed plate at 37° C. Reactions were immediately quenched by the addition of 1 μL of 5% formic acid. A plate was then frozen and shipped to SAMDI™ Tech Inc. to determine the percent conversion from H4R3(Me1) to H4R3(Me2). Dose-response curves were generated by plotting percent effect (% product conversion; Y-axis) vs. Log 10 compound concentrations (X-axis). EC50 values were determined by non-linear regression according to models for either sigmoidal (4 parameters) or biphasic (7 parameters) dose-response curves.

[3] = single EC50 = 4 parameter single site sigmoidal fit, EC50 1 = first value of 7 parameter biphasic fit, read-out: Enzyme Methylation Assay Version A (EC50 or EC50 1)
[4] = second value of 7 parameter biphasic fit, read-out: Enzyme Methylation Assay Version A (EC50 2)

| SMILES | EC50 [1] | EC50 [2, 3] | EC50 [2, 4] | EC50 ([1]; Homo sapiens, MCF7, 72 h) |
| --- | --- | --- | --- | --- |
| CC1(C)CC1(C#N)c1cnc2nc(C(=O)N3CC[C@]4(Cc5ccccc5CN4)[C@H](O)C3)cn2c1 (single isomer, unassigned) [Example 147] | 2.28 nM | 0.409 nM |  |  |
| COCC1CC(C)Cn2cc(C(=O)N3CC[C@]4(Cc5ccccc5CN4)[C@H](O)C3)nc21 (single isomer, unassigned) [Example 157] | 275 nM | 8.94 nM | 6460 nM |  |
| COCC1CC(C)Cn2cc(C(=O)N3CC[C@]4(Cc5ccccc5CN4)[C@H](O)C3)nc21 (single isomer, unassigned) [Example 159] | 527 nM | 61.7 nM | 22400 nM |  |
| O=C(c1cn2c(n1)C(C1CCOC1)CC(C(F)(F)F)C2)N1CC[C@]2(Cc3ccccc3CN2)[C@H](O)C1 (single isomer, unassigned) [Example 162, ((3R,3′R)-3′-hydroxy-1,4-dihydro-2H-spiro[isoquinoline-3,4′-piperidin]-1′-yl)((6S,8S or 6R,8R)-8-((S or R)-tetrahydrofuran-3-yl)-6-(trifluoromethyl)-5,6,7,8-tetrahydroimidazo[1,2-a]pyridin-2-yl)methanone] | 7520 nM | 260 nM | 93300 nM |  |
| O=C(c1cn2c(n1)C(C1CCOC1)CC(C(F)(F)F)C2)N1CC[C@]2(Cc3ccccc3CN2)[C@H](O)C1 (single isomer, unassigned) [Example 163, ((3R,3′R)-3′-hydroxy-1,4-dihydro-2H-spiro[isoquinoline-3,4′-piperidin]-1′-yl)((6S,8S or 6R,8R)-8-((S or R)-tetrahydrofuran-3-yl)-6-(trifluoromethyl)-5,6,7,8-tetrahydroimidazo[1,2-a]pyridin-2-yl)methanone] | 1590 nM | 96.6 nM | 36700 nM |  |
| CC1CC(C(F)(F)F)Cn2cc(C(=O)N3CC[C@]4(Cc5ccccc5CN4)[C@H](O)C3)nc21 (single isomer, unassigned) [Example 166, ((3R,3′R)-3′-hydroxy-1,4-dihydro-2H-spiro[isoquinoline-3,4′-piperidin]-1′-yl)((6R,8R or 6S,8S)-8-methyl-6-(trifluoromethyl)-5,6,7,8-tetrahydroimidazo[1,2-a]pyridin-2-yl)methanone] | 33.7 nM | 3.64 nM | 1640 nM |  |
| COC(C)c1cc(Br)cn2cc(C(=O)N3CC[C@]4(Cc5cc(Cl)ccc5CN4)[C@H](O)C3)nc12 (single isomer, unassigned) [Example 225] |  | 2.1 nM | 398 nM | 22.6 nM |
| COC(C)c1cc(Br)cn2cc(C(=O)N3CC[C@]4(Cc5ccc(Cl)cc5CN4)[C@H](O)C3)nc12 (single isomer, unassigned) [Example 226] |  | 1.4 nM |  | 5.04 nM |

Continued by falling EC50 [2, 3], values first:

| EC50 [1] | EC50 [2, 3] | EC50 [2, 4] | EC50 ([1]; Homo sapiens, MCF7, 72 h) | SMILES |
| --- | --- | --- | --- | --- |
| 841 nM | 82.2 nM | 26600 nM |  | N#CCCC1CC(C(F)(F)F)Cn2cc(C(=O)N3CC[C@]4(Cc5ccccc5CN4)[C@H](O)C3)nc21 (single isomer, unassigned) [Example 165, 3-((6R,8S or 6S,8R)-2-((3R,3′R)-3′-hydroxy-1,4-dihydro-2H-spiro[isoquinoline-3,4′-piperidine]-1′-carbonyl)-6-(trifluoromethyl)-5,6,7,8-tetrahydroimidazo[1,2-a]pyridin-8-yl)propanenitrile] |
| 1700 nM | 71.6 nM | 29800 nM |  | COCC1CC(C)Cn2cc(C(=O)N3CC[C@]4(Cc5ccccc5CN4)[C@H](O)C3)nc21 (single isomer, unassigned) [Example 158] |
|  | 42.7 nM | 15800 nM | 642 nM | COC[C@@H]1C[C@H](C(F)(F)F)Cn2cc(C(=O)N3CC[C@]4(Cc5ccccc5CN4)[C@H](O)C3)nc21 (single isomer, unassigned) [Example 156] |
| 194 nM | 9.55 nM | 3630 nM |  | CC1CC(C(F)(F)F)Cn2cc(C(=O)N3CC[C@]4(Cc5ccccc5CN4)[C@H](O)C3)nc21 (single isomer, unassigned) [Example 167, ((3R,3′R)-3′-hydroxy-1,4-dihydro-2H-spiro[isoquinoline-3,4′-piperidin]-1′-yl)((6R,8R or 6S,8S)-8-methyl-6-(trifluoromethyl)-5,6,7,8-tetrahydroimidazo[1,2-a]pyridin-2-yl)methanone] |
| 289 nM | 9.52 nM | 9480 nM |  | O=C(c1cn2c(n1)C(C1CCOC1)CC(C(F)(F)F)C2)N1CC[C@]2(Cc3ccccc3CN2)[C@H](O)C1 (single isomer, unassigned) [Example 160, ((3R,3′R)-3′-hydroxy-1,4-dihydro-2H-spiro[isoquinoline-3,4′-piperidin]-1′-yl)((6S,8S or 6R,8R)-8-((S or R)-tetrahydrofuran-3-yl)-6-(trifluoromethyl)-5,6,7,8-tetrahydroimidazo[1,2-a]pyridin-2-yl)methanone] |
| 374 nM | 5.9 nM | 9120 nM |  | O=C(c1cn2c(n1)C(C1CCOC1)CC(C(F)(F)F)C2)N1CC[C@]2(Cc3ccccc3CN2)[C@H](O)C1 (single isomer, unassigned) [Example 161, ((3R,3′R)-3′-hydroxy-1,4-dihydro-2H-spiro[isoquinoline-3,4′-piperidin]-1′-yl)((6S,8S or 6R,8R)-8-((S or R)-tetrahydrofuran-3-yl)-6-(trifluoromethyl)-5,6,7,8-tetrahydroimidazo[1,2-a]pyridin-2-yl)methanone] |
|  | 5.26 nM | 3980 nM | 122 nM | COC[C@H]1C[C@@H](C(F)(F)F)Cn2cc(C(=O)N3CC[C@]4(Cc5ccccc5CN4)[C@H](O)C3)nc21 (single isomer, unassigned) [Example 155] |
| 205 nM | 4.83 nM | 4620 nM |  | N#CCCC1CC(C(F)(F)F)Cn2cc(C(=O)N3CC[C@]4(Cc5ccccc5CN4)[C@H](O)C3)nc21 (single isomer, unassigned) [Example 164, 3-((6R,8S or 6S,8R)-2-((3R,3′R)-3′-hydroxy-1,4-dihydro-2H-spiro[isoquinoline-3,4′-piperidine]-1′-carbonyl)-6-(trifluoromethyl)-5,6,7,8-tetrahydroimidazo[1,2-a]pyridin-8-yl)propanenitrile] |
| 121 nM | 1.11 nM | 1910 nM |  | CC1(C)CC1(C#N)c1cnc2nc(C(=O)N3CC[C@]4(Cc5ccccc5CN4)[C@H](O)C3)cn2c1 (single isomer, unassigned) [Example 148] |
